Reference: the NIST ThermoML archive (doi:10.1016/j.fluid.2010.03.004)

Experiment: xn = mol fraction of the nth substance listed
Conditions: Liquid, Vibrating tube method

CCCO [propan-1-ol] + O=C=O
Conditions | mass density [kg/m3]
313.24 K, x2 = 0.202 | 807
313.24 K, x2 = 0.2572 | 812.6
313.24 K, x2 = 0.3141 | 817.6
313.24 K, x2 = 0.4054 | 823.3
313.24 K, x2 = 0.4405 | 824.4
313.24 K, x2 = 0.5256 | 826.3
313.24 K, x2 = 0.5773 | 825.7
313.24 K, x2 = 0.6774 | 822
313.24 K, x2 = 0.7843 | 786.8
363.17 K, x2 = 0.1483 | 752
363.17 K, x2 = 0.2294 | 754.9
363.17 K, x2 = 0.3137 | 754.8
363.17 K, x2 = 0.4007 | 753.6
363.17 K, x2 = 0.4863 | 749.7
363.17 K, x2 = 0.6808 | 680.6
363.17 K, x2 = 0.7308 | 638.5

CC(C)O [propan-2-ol] + O=C=O
Conditions | mass density [kg/m3]
313.22 K, x2 = 0.1267 | 783.1
313.22 K, x2 = 0.2066 | 789.6
313.22 K, x2 = 0.3029 | 799.3
313.22 K, x2 = 0.3845 | 803.6
313.22 K, x2 = 0.4501 | 806.7
313.22 K, x2 = 0.554 | 805.4
313.22 K, x2 = 0.6472 | 794.9
313.22 K, x2 = 0.7539 | 783.1
313.22 K, x2 = 0.902 | 703.7
333.03 K, x2 = 0.137 | 761
333.03 K, x2 = 0.2077 | 762.7
333.03 K, x2 = 0.3001 | 765
333.03 K, x2 = 0.4023 | 767.5
333.03 K, x2 = 0.4645 | 768.5
333.03 K, x2 = 0.6377 | 770.7
333.03 K, x2 = 0.7582 | 771.4
333.03 K, x2 = 0.8297 | 771.4
348.25 K, x2 = 0.0736 | 741.2
348.25 K, x2 = 0.1432 | 743.9
348.25 K, x2 = 0.2469 | 746.5
348.25 K, x2 = 0.3234 | 748.6
348.25 K, x2 = 0.4042 | 750.9
348.25 K, x2 = 0.5132 | 752.9
348.25 K, x2 = 0.5658 | 753.6
348.25 K, x2 = 0.7177 | 745.3
348.25 K, x2 = 0.755 | 646.5
348.25 K, x2 = 0.8241 | 568
362.92 K, x2 = 0.1016 | 641.7
362.92 K, x2 = 0.1668 | 690.6
362.92 K, x2 = 0.2312 | 726.4
362.92 K, x2 = 0.3079 | 728.3
362.92 K, x2 = 0.3719 | 728.7
362.92 K, x2 = 0.4681 | 726.5
362.92 K, x2 = 0.5653 | 704.5
362.92 K, x2 = 0.6285 | 671.6
362.92 K, x2 = 0.7165 | 590.4
